ChEMBL document CHEMBL6127035, “Novel pyridazinone derivatives bind to KSRP: Synthesis, anti-tumor biological evaluations and modelling insights” (Eur J Med Chem, 2024)
Calls of active or inactive are those of the source. The calls are words filed in the database; no cut-off is given here.

What was measured:
A549 = experiment: Antiproliferative activity against human A549 cells assessed as reduction in cell viability incubated for 2 days by MTT assay; format: functional, cell-based; conditions: A549, 48 h
MCF7 [1] = experiment: Antitumor activity against human MCF7 cells xenografted in BALB/C-nu/nu mouse model assessed as inhibition of Ki-67 expression level at 20 to 30 mg/kg, iv administered every other day for 15 days by immunohistochemical analysis; format: functional, organism-based; conditions: dose 20-30 mg/kg, time 15.0 day
[2] = Acute toxicity in BALB/c nu/nu mouse assessed as survival rate at 110 mg/kg, ip administered for 7 days relative to control; format: organism-based; conditions: in vivo, time 7 day
[3] = Acute toxicity in ip dosed BALB/c nu/nu mouse assessed as lethal dose measured after 7 days; format: organism-based; conditions: in vivo, time 7 day
MCF7 [4] = experiment: Antiproliferation against human MCF7 cells assessed as effect on cell proliferation at 0.625 uM incubated for 2 days by MTT assay; format: functional, cell-based; conditions: time 2.0 day
HCT-116 = experiment: Antiproliferative activity against human HCT-116 cells assessed as reduction in cell viability incubated for 2 days by MTT assay; format: functional, cell-based; conditions: HCT-116, 48 h
MCF7 [5] = experiment: Induction of DNA double-strand breaks in human MCF7 cells assessed as enlarged nucleus at 10 uM incubated for 24 hrs by Hoechst 33342 staining based fluorescence microscopic analysis; format: functional, cell-based
[6] = Toxicity in BALB/C-nu/nu mouse xenografted with human MCF7 cells assessed as histopathological lesions in heart at 20 to 30 mg/kg, iv administered every other day for 15 days by H and E staining based analysis; format: organism-based; conditions: in vivo, 360 h, dose 20-30 mg/kg, time 15 day
[7] = Acute toxicity in BALB/c nu/nu mouse assessed as survival rate at 90 mg/kg, ip administered for 7 days relative to control; format: organism-based; conditions: in vivo, time 7 day
[8] = Toxicity in BALB/C-nu/nu mouse xenografted with human MCF7 cells assessed as histopathological lesions in spleen at 20 to 30 mg/kg, iv administered every other day for 15 days by H and E staining based analysis; format: organism-based; conditions: in vivo, 360 h, dose 20-30 mg/kg, time 15 day
[9] = Acute toxicity in BALB/c nu/nu mouse assessed as survival rate at 120 mg/kg, ip administered for 7 days relative to control; format: organism-based; conditions: in vivo, time 7 day
MCF7 [10] = experiment: Induction of apoptosis in human MCF7 cells assessed as viable cells at 1.25 uM incubated for 48 hrs by Annexin V-FITC/PI staining based flow cytometric analysis (reference value: 87.2 %); format: functional; conditions: read-out: Activity
MCF7 [11] = experiment: Induction of apoptosis in human MCF7 cells assessed as early apoptotic cells at 2.5 uM incubated for 48 hrs by Annexin V-FITC/PI staining based flow cytometric analysis (reference value: 6.33 %); format: functional
MCF7 [12] = experiment: Induction of apoptosis in human MCF7 cells assessed as necrotic cells at 1.25 uM incubated for 48 hrs by Annexin V-FITC/PI staining based flow cytometric analysis (reference value: 1.16 %); format: functional
[13] = Toxicity in BALB/C-nu/nu mouse xenografted with human MCF7 cells assessed as histopathological lesions in lung at 20 to 30 mg/kg, iv administered every other day for 15 days by H and E staining based analysis; format: organism-based; conditions: in vivo, 360 h, dose 20-30 mg/kg, time 15 day
MCF7 [14] = experiment: Induction of apoptosis in human MCF7 cells assessed as early apoptotic cells at 0.62 uM incubated for 48 hrs by Annexin V-FITC/PI staining based flow cytometric analysis (reference value: 6.33 %); format: functional
[15] = Cytotoxicity against human L02 cells assessed as reduction in cell viability incubated for 2 days by MTT assay; format: toxicity, cell-based
NCI-H460 = experiment: Antiproliferative activity against human NCI-H460 cells assessed as reduction in cell viability incubated for 2 days by MTT assay; format: functional, cell-based; conditions: NCI-H460, 48 h
MCF7 [16] = experiment: Induction of DNA double-strand breaks in human MCF7 cells assessed as appearance of nuclear fragments at 10 uM incubated for 24 hrs by Hoechst 33342 staining based fluorescence microscopic analysis; format: functional, cell-based
MCF7 [17] = experiment: Induction of apoptosis in human MCF7 cells assessed as early apoptotic cells at 1.25 uM incubated for 48 hrs by Annexin V-FITC/PI staining based flow cytometric analysis (reference value: 6.33 %); format: functional
MCF7 [18] = experiment: Induction of apoptosis in human MCF7 cells assessed as late apoptotic cells at 1.25 uM incubated for 48 hrs by Annexin V-FITC/PI staining based flow cytometric analysis (reference value: 5.31 %); format: functional
MCF7 [19] = experiment: Inhibition of colony formation in human MCF7 cells assessed as reduction in colony count incubated for 2 weeks by crystal violet staining based analysis; format: functional, cell-based; conditions: dose 1.25-2.5 µM
MCF7 [20] = experiment: Antitumor activity against human MCF7 cells xenografted in BALB/C-nu/nu mouse model assessed as decrease in tumor volume at 20 mg/kg, iv administered every other day for 15 days relative to control; format: functional; set-up: scale not given: the % may be the effect or the level left; conditions: time 15 day
MCF7 [21] = experiment: Induction of morphological changes in human MCF7 cells assessed as cell membrane blebbing at 10 uM measured after 6 hrs by bright field microscopic; format: functional, cell-based
MCF7 [22] = experiment: Antiproliferative activity against human MCF7 cells assessed as reduction in cell viability incubated for 2 days by MTT assay; format: functional, cell-based; conditions: MCF7, 48 h
MCF7 [23] = experiment: Induction of DNA double-strand breaks in human MCF7 cells assessed as increase in gamma-H2AX foci formation at 10 uM incubated for 24 hrs by […] fluorescence microscopic analysis; format: functional, cell-based
MIA PaCa-2 = experiment: Antiproliferative activity against human MIA PaCa-2 cells assessed as reduction in cell viability incubated for 2 days by MTT assay; format: functional, cell-based; conditions: MIA PaCa-2, 48 h
MCF7 [24] = experiment: Inhibition of cell migration in human MCF7 cells assessed as reduction in wound healing index at 0.625 uM measured after 72 hrs by scratch assay; format: functional, cell-based
MCF7 [25] = experiment: Induction of apoptosis in human MCF7 cells assessed as viable cells at 2.5 uM incubated for 48 hrs by Annexin V-FITC/PI staining based flow cytometric analysis (reference value: 87.2 %); format: functional; conditions: read-out: Activity
MCF7 [26] = experiment: Induction of apoptosis in human MCF7 cells assessed as late apoptotic cells at 0.62 uM incubated for 48 hrs by Annexin V-FITC/PI staining based flow cytometric analysis (reference value: 5.31 %); format: functional
MCF7 [27] = experiment: Induction of cell cycle arrest in human MCF7 cells assessed as decrease in G0/G1 phase cells at 5 uM incubated for 24 hrs by PI staining based flow cytometric analysis; format: functional
MCF7 [28] = experiment: Induction of cell cycle arrest in human MCF7 cells assessed as decrease in S phase cells at 5 uM incubated for 24 hrs by PI staining based flow cytometric analysis; format: functional
Mitochondrial membrane = experiment: Induction of mitochondrial membrane potential loss in human MCF7 cells assessed as increase in green fluorescence at 10 uM incubated for 24 hrs by JC-1 staining based automated microscopic immunofluorescence analysis; format: cell membranes
MCF7 [29] = experiment: Induction of apoptosis in human MCF7 cells assessed as viable cells at 0.62 uM incubated for 48 hrs by Annexin V-FITC/PI staining based flow cytometric analysis (reference value: 87.2 %); format: functional; conditions: read-out: Activity
MCF7 [30] = experiment: Induction of apoptosis in human MCF7 cells assessed as necrotic cells at 2.5 uM incubated for 48 hrs by Annexin V-FITC/PI staining based flow cytometric analysis (reference value: 1.16 %); format: functional

In the case of `CN(CCO)S(=O)(=O)c1ccc(-n2ncc(Cl)c(Cl)c2=O)cc1`, the IC50 (A549) is reported as 2.05 µM, the Activity (MCF7 [1]) is reported as “Active” and the survival at 168 h [2] is reported as 20%. For the same compound, the LD50 at 168 h [3] was 105 mg/kg, the Activity (MCF7 [4]) was “inactive” and the IC50 (HCT-116) was 0.78 µM. The Activity (MCF7 [5]) was “Active”, the Activity [6] was “Non-Toxic” and the survival at 168 h [7] was 100%. For the same compound, the Activity [8] was “Non-Toxic”, the survival at 168 h [9] was 0% and the viability at 1.25 µM (MCF7 [10]) was 75.1%. The Activity (MCF7 [11]) was 26.7%, the Activity (MCF7 [12]) was 1.26% and the Activity [13] was “Non-Toxic”. It also gave an Activity (MCF7 [14]) of 7.62%, an IC50 at 2 days [15] of 8.34 µM and an IC50 (NCI-H460) of 1.02 µM. The Activity (MCF7 [16]) was “Active”, the Activity (MCF7 [17]) was 10.2% and the Activity (MCF7 [18]) was 13.5%. The inhibition (MCF7 [19]) was “Dose-Dependent Effect”, the Activity (MCF7 [20]) was 37.7% and the Activity (MCF7 [21]) was “Active”. The IC50 (MCF7 [22]) was 3.1 µM, the Activity (MCF7 [23]) was “Active” and the IC50 (MIA PaCa-2) was 0.36 µM. The inhibition (MCF7 [24]) was “Active”, the viability at 2.5 µM (MCF7 [25]) was 39.5% and the Activity (MCF7 [26]) was 6.63%. The Activity (MCF7 [27]) was “Active”, the Activity (MCF7 [28]) was “Active” and the Activity (Mitochondrial membrane) was “Active”. For the same compound, the viability at 0.62 µM (MCF7 [29]) was 84.5% and the Activity (MCF7 [30]) was 2.77%.
